{"source": "paper PMC4522657", "about": "“Identification of a DYRK1A Inhibitor that Induces Degradation of the Target Kinase using Co-chaperone CDC37 fused with Luciferase nanoKAZ” (Scientific Reports, 2015)", "key": {"FGFR4": {"biological_target": "T1, FGFR4 (Homo sapiens, UniProt P22455)", "T1 construct": "purchased Carna Biosciences", "assay": "Kinase panel, CaNDY 1 µM", "type": "biochemical", "conditions": "CaNDY 1 µM relative to DMSO"}, "Haspin": {"biological_target": "T2, Haspin (Homo sapiens, UniProt Q8TF76)", "T2 sequence (Q8TF76 1-798)": "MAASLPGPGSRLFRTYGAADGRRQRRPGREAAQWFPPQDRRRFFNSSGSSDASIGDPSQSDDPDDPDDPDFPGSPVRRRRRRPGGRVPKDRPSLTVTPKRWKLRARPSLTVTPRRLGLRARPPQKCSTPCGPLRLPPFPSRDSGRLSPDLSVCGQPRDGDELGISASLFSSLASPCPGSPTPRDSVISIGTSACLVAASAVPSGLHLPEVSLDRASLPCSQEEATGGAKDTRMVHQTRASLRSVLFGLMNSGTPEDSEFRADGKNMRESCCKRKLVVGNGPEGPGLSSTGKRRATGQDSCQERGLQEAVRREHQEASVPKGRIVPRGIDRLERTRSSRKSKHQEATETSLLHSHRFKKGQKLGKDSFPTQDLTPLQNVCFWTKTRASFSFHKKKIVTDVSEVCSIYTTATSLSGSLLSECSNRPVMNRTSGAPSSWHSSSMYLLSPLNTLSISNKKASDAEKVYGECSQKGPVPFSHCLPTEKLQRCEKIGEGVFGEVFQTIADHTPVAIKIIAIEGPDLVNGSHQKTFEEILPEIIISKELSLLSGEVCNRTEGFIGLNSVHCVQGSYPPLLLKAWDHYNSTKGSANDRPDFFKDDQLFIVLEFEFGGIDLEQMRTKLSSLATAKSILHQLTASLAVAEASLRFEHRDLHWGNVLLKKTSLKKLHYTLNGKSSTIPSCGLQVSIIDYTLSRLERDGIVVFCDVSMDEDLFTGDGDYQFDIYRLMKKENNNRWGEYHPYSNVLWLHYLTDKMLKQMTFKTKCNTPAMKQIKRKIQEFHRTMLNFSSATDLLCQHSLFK", "assay": "Western blot of target kinase expression in HEK293 cells", "type": "cell-based", "parameters": "endogenous in cells; host or cells: HEK293", "conditions": "CaNDY 2 μM, 4 days", "description": "(§1) To check selectivity of CaNDY for other kinases, we first examined protein expression of several kinases in HEK293 cells treated with CaNDY (2 μM) for 4 days. […] Third, protein expression of these kinases targeted by CaNDY (DYRK1A, DYRK1B, CLK1, and Haspin) was reassessed by Western blot analysis as performed in Fig. 7b.\n(§2) Western blot analysis was performed using the antibodies described above. In brief, total cell lysates were separated by SDS-PAGE (5–20% gels; ATTO, Tokyo, Japan) under reducing conditions and then transferred to a PVDF membrane (PALL, SP, Brazil). Antibody reactions were performed with Can Get Signal® Immunoreaction Enhancer Solution (Toyobo). Peroxidase activities on the membrane were visualized with ECL Western Blotting Detection Reagents (GE Healthcare) or ImmunoStar® LD (Wako Pure Chemical Industries, Osaka, Japan), and a ChemiDoc^TM MP Imaging System (Bio-Rad, Hercules, CA, USA)."}, "PIK3CA/PIK3R1": {"biological_target": "T3, PIK3CA/PIK3R1 (Homo sapiens, UniProt P42336)", "T3 construct": "purchased Carna Biosciences", "assay": "Kinase panel, CaNDY 1 µM", "type": "biochemical", "conditions": "CaNDY 1 µM relative to DMSO"}, "TIE2": {"biological_target": "T4, TIE2 (Homo sapiens, UniProt Q02763)", "T4 construct": "purchased Carna Biosciences", "T4 sequence (Q02763 23-1124)": "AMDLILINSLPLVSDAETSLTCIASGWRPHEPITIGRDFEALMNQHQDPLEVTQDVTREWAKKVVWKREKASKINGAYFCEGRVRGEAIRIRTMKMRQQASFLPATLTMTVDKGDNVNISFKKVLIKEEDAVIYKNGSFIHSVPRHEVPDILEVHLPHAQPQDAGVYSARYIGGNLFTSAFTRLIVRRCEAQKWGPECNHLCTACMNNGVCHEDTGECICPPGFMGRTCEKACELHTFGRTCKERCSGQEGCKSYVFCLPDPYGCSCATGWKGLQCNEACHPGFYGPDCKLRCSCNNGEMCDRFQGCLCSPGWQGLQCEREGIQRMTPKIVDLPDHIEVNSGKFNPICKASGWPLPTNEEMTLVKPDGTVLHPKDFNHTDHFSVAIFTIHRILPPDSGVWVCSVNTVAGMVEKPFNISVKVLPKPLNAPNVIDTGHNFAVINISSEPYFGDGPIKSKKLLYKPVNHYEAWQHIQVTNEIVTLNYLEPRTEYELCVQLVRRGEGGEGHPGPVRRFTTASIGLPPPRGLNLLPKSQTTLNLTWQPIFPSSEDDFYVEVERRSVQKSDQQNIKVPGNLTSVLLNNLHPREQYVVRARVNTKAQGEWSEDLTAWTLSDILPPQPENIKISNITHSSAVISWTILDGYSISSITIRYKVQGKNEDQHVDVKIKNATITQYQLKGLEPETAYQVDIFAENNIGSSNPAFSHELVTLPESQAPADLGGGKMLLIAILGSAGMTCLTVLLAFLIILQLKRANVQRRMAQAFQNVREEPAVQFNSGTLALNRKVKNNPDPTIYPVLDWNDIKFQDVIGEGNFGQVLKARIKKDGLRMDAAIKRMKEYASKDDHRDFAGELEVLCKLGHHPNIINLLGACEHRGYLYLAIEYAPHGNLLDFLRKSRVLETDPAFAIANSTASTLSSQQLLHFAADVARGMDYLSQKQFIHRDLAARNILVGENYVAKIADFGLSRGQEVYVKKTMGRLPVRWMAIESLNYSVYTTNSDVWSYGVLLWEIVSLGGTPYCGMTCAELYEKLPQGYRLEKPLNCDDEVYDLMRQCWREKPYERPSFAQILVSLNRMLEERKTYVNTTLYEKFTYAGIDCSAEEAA", "assay": "Kinase panel, CaNDY 1 µM", "type": "biochemical", "conditions": "CaNDY 1 µM relative to DMSO"}, "RET(S891A)": {"biological_target": "T5, RET(S891A) (Homo sapiens, UniProt P07949, S891A)", "T5 construct": "purchased Carna Biosciences", "T5 sequence (P07949 29-1114 S891A)": "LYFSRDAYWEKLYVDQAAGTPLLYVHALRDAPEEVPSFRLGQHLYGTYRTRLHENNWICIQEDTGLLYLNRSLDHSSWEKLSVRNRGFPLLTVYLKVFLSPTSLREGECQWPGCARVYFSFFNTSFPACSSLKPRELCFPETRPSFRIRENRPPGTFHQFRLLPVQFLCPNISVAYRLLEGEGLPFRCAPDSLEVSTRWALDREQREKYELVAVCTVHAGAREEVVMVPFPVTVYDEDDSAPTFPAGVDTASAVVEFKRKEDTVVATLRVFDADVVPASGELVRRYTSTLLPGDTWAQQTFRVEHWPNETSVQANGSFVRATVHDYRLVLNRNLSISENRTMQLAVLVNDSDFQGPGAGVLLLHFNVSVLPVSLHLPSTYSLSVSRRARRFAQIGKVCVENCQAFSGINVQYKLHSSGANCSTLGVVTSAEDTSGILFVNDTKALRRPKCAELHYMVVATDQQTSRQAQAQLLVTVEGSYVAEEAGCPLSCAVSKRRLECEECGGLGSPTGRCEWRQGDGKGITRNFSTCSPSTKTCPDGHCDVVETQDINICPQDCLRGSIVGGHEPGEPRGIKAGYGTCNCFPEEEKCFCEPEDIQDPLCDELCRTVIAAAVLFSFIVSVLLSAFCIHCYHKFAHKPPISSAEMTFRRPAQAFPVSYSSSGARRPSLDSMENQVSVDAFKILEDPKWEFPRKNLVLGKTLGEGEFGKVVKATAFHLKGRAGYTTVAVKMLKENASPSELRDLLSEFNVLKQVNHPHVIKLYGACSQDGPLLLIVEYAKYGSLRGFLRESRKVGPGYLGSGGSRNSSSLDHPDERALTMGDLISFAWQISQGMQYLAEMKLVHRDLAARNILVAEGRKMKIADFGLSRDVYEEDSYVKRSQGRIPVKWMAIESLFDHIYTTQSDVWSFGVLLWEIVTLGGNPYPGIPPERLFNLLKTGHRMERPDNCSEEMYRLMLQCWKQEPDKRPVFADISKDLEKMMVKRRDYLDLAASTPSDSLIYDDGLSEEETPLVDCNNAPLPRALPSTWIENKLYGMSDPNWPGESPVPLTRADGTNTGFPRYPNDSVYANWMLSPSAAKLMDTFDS", "assay": "Kinase panel, CaNDY 1 µM", "type": "biochemical", "conditions": "CaNDY 1 µM relative to DMSO"}, "PLK2": {"biological_target": "T6, PLK2 (Homo sapiens, UniProt Q9NYY3)", "T6 construct": "purchased Carna Biosciences", "assay": "Kinase panel, CaNDY 1 µM", "type": "biochemical", "conditions": "CaNDY 1 µM relative to DMSO"}, "RAF1_Cascade": {"biological_target": "T7, RAF1_Cascade (Homo sapiens, UniProt P04049)", "T7 construct": "purchased Carna Biosciences", "assay": "Kinase panel, CaNDY 1 µM", "type": "biochemical", "conditions": "CaNDY 1 µM relative to DMSO"}, "p70S6K": {"biological_target": "T8, p70S6K (Homo sapiens, UniProt P23443)", "T8 construct": "purchased Carna Biosciences", "assay": "Kinase panel, CaNDY 1 µM", "type": "biochemical", "conditions": "CaNDY 1 µM relative to DMSO"}, "CK2α": {"biological_target": "T9, CK2α (Homo sapiens, UniProt P68400)", "T9 construct": "endogenous in cells; host or cells: HEK293", "assay": "Western blot of kinase expression in HEK293 cells", "type": "cell-based", "conditions": "CaNDY 2 μM, 4 days", "description": "as §1, §2"}, "KIT(V560G)": {"biological_target": "T10, KIT(V560G) (Homo sapiens, UniProt P10721, V560G)", "T10 construct": "purchased Carna Biosciences", "assay": "Kinase panel, CaNDY 1 µM", "type": "biochemical", "conditions": "CaNDY 1 µM relative to DMSO"}, "MAP3K1_Cascade": {"biological_target": "T11, MAP3K1_Cascade (Homo sapiens, UniProt Q13233)", "T11 construct": "purchased Carna Biosciences", "T11 sequence (Q13233 whole entry)": "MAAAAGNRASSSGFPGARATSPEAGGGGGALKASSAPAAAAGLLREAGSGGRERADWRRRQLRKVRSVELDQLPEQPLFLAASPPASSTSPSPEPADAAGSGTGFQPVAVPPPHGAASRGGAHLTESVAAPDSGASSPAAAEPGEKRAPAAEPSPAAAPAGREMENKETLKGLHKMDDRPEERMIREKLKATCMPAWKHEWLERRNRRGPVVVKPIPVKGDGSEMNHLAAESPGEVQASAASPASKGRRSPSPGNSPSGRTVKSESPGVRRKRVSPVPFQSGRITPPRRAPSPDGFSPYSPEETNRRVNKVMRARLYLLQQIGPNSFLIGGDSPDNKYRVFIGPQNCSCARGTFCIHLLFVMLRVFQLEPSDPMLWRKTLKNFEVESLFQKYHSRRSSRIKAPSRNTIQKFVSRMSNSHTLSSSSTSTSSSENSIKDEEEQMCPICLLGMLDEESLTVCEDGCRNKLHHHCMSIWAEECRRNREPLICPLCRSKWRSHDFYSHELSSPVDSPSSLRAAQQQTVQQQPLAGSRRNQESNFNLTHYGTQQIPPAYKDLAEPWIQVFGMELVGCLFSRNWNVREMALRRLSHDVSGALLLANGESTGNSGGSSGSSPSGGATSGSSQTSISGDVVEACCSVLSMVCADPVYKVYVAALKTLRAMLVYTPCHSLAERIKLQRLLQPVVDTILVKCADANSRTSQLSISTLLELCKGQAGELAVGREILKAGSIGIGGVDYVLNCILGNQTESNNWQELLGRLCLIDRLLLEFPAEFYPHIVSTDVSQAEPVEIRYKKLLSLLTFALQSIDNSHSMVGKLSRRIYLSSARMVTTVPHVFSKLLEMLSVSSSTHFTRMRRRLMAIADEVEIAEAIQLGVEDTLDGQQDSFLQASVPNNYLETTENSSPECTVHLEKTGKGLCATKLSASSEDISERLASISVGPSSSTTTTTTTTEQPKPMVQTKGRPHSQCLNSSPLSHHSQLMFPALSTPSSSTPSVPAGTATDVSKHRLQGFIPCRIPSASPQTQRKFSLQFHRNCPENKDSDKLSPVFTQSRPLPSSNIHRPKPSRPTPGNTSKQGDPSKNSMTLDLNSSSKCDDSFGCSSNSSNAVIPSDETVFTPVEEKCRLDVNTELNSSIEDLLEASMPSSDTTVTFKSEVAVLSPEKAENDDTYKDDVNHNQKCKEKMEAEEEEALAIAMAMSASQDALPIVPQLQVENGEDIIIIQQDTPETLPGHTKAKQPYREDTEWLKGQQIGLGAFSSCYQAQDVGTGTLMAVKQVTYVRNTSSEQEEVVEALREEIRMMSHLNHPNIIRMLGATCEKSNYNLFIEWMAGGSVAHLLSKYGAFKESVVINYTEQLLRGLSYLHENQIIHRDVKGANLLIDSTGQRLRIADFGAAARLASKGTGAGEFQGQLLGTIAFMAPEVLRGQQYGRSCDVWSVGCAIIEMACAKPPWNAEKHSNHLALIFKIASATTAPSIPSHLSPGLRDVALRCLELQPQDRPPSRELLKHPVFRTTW", "assay": "Kinase panel, CaNDY 1 µM", "type": "biochemical", "conditions": "CaNDY 1 µM relative to DMSO"}, "CK2α2/β": {"biological_target": "T12, CK2α2/β (Homo sapiens, UniProt P19784)", "T12 construct": "purchased Carna Biosciences", "assay": "Kinase panel, CaNDY 1 µM", "type": "biochemical", "conditions": "CaNDY 1 µM relative to DMSO"}, "PKCγ": {"biological_target": "T13, PKCγ (Homo sapiens, UniProt P05129)", "T13 construct": "purchased Carna Biosciences", "assay": "Kinase panel, CaNDY 1 µM", "type": "biochemical", "conditions": "CaNDY 1 µM relative to DMSO"}, "CLK1": {"biological_target": "CLK1 (Homo sapiens, UniProt P49759)", "sequence (P49759 whole entry, the tested form may be a part)": "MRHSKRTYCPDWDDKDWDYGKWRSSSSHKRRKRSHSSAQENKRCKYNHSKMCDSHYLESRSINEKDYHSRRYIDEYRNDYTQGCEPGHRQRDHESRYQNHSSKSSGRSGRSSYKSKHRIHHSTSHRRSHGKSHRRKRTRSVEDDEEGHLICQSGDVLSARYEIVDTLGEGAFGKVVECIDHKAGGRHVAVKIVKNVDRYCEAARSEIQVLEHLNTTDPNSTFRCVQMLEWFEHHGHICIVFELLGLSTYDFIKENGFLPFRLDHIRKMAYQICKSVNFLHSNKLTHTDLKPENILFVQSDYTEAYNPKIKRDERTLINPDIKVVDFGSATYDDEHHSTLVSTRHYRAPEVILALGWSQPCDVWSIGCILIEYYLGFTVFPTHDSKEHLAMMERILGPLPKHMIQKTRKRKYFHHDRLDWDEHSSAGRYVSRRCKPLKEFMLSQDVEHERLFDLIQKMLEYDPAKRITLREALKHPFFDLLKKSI", "assay": "Kinase panel, CaNDY 1 µM", "type": "biochemical", "parameters": "purchased Carna Biosciences", "excerpt": "Detailed information on the assay conditions is available on the website of Carna Biosciences (http://www.carnabio.com/english/index.html; Kobe, Japan). In brief, full-length human recombinant kinases were expressed using a baculovirus expression system as amino-terminal GST-fusion proteins, and purified by glutathione-Sepharose chromatography. The GenBank accession numbers of DYRK1A, DYRK1B, DYRK2, and DYRK3 were NP_001387.2, NP_004705.1, NP_003574.1, and NP_003573.2. […] For each compound, a DMSO solution was diluted in assay buffer to yield a final concentration of 1% DMSO. After incubation for one hour at room temperature, substrate phosphorylation was analyzed by electrophoretic separation of the substrate and products using a Caliper LC3000 platform (Caliper Life Sciences, Mountain View, CA, USA). The phosphorylated product (P)/(P + substrate) ratio was calculated at each concentration of each small molecule and the percent inhibition was expressed relative to a control assay in the absence of the small molecule. […] The IC50 of each compound was calculated by interpolation on a log-concentration-response curve fitted with a four-parameter logistic equation.\nAll kinase assays were carried out at Carna Biosciences. The inhibitory map was made with Kinome Render[36]."}, "Erk1": {"biological_target": "T14, Erk1 (Homo sapiens, UniProt P27361)", "T14 construct": "purchased Carna Biosciences", "assay": "Kinase panel, CaNDY 1 µM", "type": "biochemical", "conditions": "CaNDY 1 µM relative to DMSO"}}}
{"compound": "[H]/N=C1/NC(=O)C(=Cc2ccc3c(c2)CCO3)S1", "note": "[CaNDY, (Z)-5-[(2,3-dihydrobenzofuran-5-yl)methylene]-2-iminothiazolidin-4-one]", "values": [{"measurement": "remaining activity at 1 µM", "setting": "FGFR4", "value": 107, "unit": "%"}, {"measurement": "protein expression of Haspin", "setting": "Haspin", "value": "decreased expression"}, {"measurement": "remaining activity at 1 µM", "setting": "PIK3CA/PIK3R1", "value": 38.5, "unit": "%"}, {"measurement": "remaining activity at 1 µM", "setting": "TIE2", "value": 101, "unit": "%"}, {"measurement": "remaining activity at 1 µM", "setting": "RET(S891A)", "value": 103, "unit": "%"}, {"measurement": "%Activity", "setting": "PLK2", "value": 95.9, "unit": "%"}, {"measurement": "remaining activity at 1 µM", "setting": "RAF1_Cascade", "value": 82.3, "unit": "%"}, {"measurement": "remaining activity at 1 µM", "setting": "p70S6K", "value": 89.7, "unit": "%"}, {"measurement": "protein expression of CK2α", "setting": "CK2α", "value": "did not decrease"}, {"measurement": "remaining activity at 1 µM", "setting": "KIT(V560G)", "value": 101, "unit": "%"}, {"measurement": "remaining activity at 1 µM", "setting": "MAP3K1_Cascade", "value": 99, "unit": "%"}, {"measurement": "remaining activity at 1 µM", "setting": "CK2α2/β", "value": 23.4, "unit": "%"}, {"measurement": "remaining activity at 1 µM", "setting": "PKCγ", "value": 90.6, "unit": "%"}, {"measurement": "%Activity", "setting": "CLK1; CLK1, CaNDY 1 µM relative to DMSO", "value": 3.0, "unit": "%"}, {"measurement": "inhibition at 1 µM", "setting": "CLK1; read-out: percentage inhibition", "value": "> 90", "unit": "%"}, {"measurement": "remaining activity at 1 µM", "setting": "Erk1", "value": 96.2, "unit": "%"}]}
